“Also recorded” adds a separate entry of the source.
Columns and labels:
[1] = DPPH free radical scavenging assay; type: biochemical; details: for % DPPH scavenging mean ± SEM: n = 3; for IC50: read-out: IC50 DPPH scavenging
[2] = ABTS scavenging assay; type: biochemical; details: for % ABTS scavenging mean ± SEM: n = 3; for IC50: read-out: IC50 ABTS scavenging
[3] = target: electric eel acetylcholinesterase (type-VI-S) (Electrophorus electricus, UniProt O42275); test: AChE inhibition, Ellman's colorimetric method; type: biochemical; details: for IC50: IC50 AChE inhibition, in vitro; for inhibition at 31.25 µM: read-out: % AChE inhibition mean ± SEM, 31.25 μM, n = 3; for inhibition at 62.5 µM: read-out: % AChE inhibition mean ± SEM, 62.5 μM, n = 3; for inhibition at 125 µM: read-out: % AChE inhibition mean ± SEM, 125 μM, n = 3; for inhibition at 250 µM: read-out: % AChE inhibition mean ± SEM, 250 μM, n = 3; for inhibition at 500 µM: read-out: % AChE inhibition mean ± SEM, 500 μM, n = 3; for inhibition at 1000 µM: read-out: % AChE inhibition mean ± SEM, 1000 μM, n = 3
electric eel acetylcholinesterase (type-VI-S), sequence (O42275 24-633): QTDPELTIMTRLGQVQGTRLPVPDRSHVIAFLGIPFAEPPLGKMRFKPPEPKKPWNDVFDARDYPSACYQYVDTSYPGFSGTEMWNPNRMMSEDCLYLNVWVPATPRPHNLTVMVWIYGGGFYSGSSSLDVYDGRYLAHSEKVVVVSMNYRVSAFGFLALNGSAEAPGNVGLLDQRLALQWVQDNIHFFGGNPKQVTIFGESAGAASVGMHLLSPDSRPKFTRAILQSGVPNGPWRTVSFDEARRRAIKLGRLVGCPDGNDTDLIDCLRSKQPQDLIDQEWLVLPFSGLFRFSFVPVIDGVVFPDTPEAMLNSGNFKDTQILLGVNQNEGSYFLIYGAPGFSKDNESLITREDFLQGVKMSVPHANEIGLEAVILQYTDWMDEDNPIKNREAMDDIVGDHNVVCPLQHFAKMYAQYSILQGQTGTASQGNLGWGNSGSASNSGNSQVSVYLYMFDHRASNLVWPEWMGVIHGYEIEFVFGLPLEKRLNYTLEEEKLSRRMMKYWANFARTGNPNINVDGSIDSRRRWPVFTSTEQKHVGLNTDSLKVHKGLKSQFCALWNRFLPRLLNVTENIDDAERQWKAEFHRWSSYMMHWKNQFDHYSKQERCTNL

[4] = target: equine butyrylcholinesterase (Equus caballus, UniProt P81908); test: BuChE inhibition, Ellman's colorimetric method; type: biochemical; details: for IC50: IC50 BuChE inhibition, in vitro; for inhibition at 31.25 µM / inhibition at 62.5 µM / inhibition at 125 µM / inhibition at 250 µM / inhibition at 500 µM / inhibition at 1000 µM: read-out: % BuChE inhibition mean ± SEM
equine butyrylcholinesterase, sequence (P81908 whole entry): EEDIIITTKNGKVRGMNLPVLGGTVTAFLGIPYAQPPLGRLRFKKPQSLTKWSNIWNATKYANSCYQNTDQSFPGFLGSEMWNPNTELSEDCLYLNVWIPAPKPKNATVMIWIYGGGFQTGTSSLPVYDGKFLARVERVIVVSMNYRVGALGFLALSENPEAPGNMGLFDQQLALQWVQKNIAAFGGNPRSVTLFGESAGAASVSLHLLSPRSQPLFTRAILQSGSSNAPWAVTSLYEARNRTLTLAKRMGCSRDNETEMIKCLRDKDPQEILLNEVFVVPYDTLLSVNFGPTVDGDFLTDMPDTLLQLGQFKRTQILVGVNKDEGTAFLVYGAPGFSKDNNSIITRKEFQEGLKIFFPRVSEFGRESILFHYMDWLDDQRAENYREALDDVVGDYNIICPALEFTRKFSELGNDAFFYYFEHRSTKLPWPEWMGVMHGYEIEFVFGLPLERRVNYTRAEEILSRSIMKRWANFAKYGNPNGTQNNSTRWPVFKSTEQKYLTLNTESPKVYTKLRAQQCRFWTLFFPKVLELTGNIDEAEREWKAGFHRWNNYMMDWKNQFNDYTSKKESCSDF

[5] = system: scopolamine-induced memory impairment in mice; test: Y-maze spontaneous alternation, scopolamine-induced amnesia; type: in vivo
[6] = system: scopolamine-induced memory impairment in mice; test: Novel object recognition test; type: in vivo
[7] = 30 mg/kg plus scopolamine 1 mg/kg
[8] = 1, 10 and 30 mg/kg plus scopolamine 1 mg/kg
[9] = 10 and 30 mg/kg plus scopolamine 1 mg/kg

SMILES	% DPPH scavenging mean ± SEM ([1]; 31.25 μM) [%]	% DPPH scavenging mean ± SEM ([1]; 125 μM) [%]	% DPPH scavenging mean ± SEM ([1]; 250 μM) [%]	% DPPH scavenging mean ± SEM ([1]; 500 μM) [%]	% DPPH scavenging mean ± SEM ([1]; 1000 μM) [%]	IC50 [1] [µM]	% ABTS scavenging mean ± SEM ([2]; 31.25 μM) [%]	% ABTS scavenging mean ± SEM ([2]; 62.5 μM) [%]	% ABTS scavenging mean ± SEM ([2]; 125 μM) [%]	% ABTS scavenging mean ± SEM ([2]; 250 μM) [%]	% ABTS scavenging mean ± SEM ([2]; 500 μM) [%]	% ABTS scavenging mean ± SEM ([2]; 1000 μM) [%]	IC50 [2] [µM]	IC50 [3] [µM]	inhibition at 31.25 µM [4] [%]	inhibition at 62.5 µM [4] [%]	inhibition at 125 µM [4] [%]	inhibition at 250 µM [4] [%]	inhibition at 500 µM [4] [%]	inhibition at 1000 µM [4] [%]	other results
O=C1O[C@H]([C@@H](O)CO)C(O)=C1O [ascorbic acid, reference compound]	29.20 ± 1.03	52.56 ± 0.69	65.19 ± 0.29	74.44 ± 0.48	85.08 ± 0.32	61	35.27 ± 0.67	44.58 ± 1.11	51.89 ± 0.59	63.11 ± 1.22	73.22 ± 0.21	82.14 ± 0.19	125	–	–	–	–	–	–	–	% DPPH scavenging mean ± SEM ([1]; 62.5 μM): 47.65 ± 0.2a %
O=C1c2ccccc2C(=O)N1c1ccc(C(F)(F)F)cc1 [compound 1, 2-(4-(trifluoromethyl)phenyl)isoindoline-1,3-dione]	30.21 ± 0.17	52.16 ± 0.15	67.85 ± 0.18	76.65 ± 0.30	85.87 ± 0.23	105	11.47 ± 0.54	28.21 ± 0.32	42.10 ± 1.11	49.72 ± 0.72	66.65 ± 0.61	70.55 ± 0.32	205	10	41.39 ± 0.07	47.29 ± 0.12	54.29 ± 0.19	61.76 ± 0.49	67.4 ± 0.89	75.4 ± 1.39	inhibition at 31.25 µM [3]: 55.68 ± 0.52%; inhibition at 62.5 µM [3]: 61.77 ± 0.49%; inhibition at 125 µM [3]: 77.4 ± 0.9%; inhibition at 250 µM [3]: 84.4 ± 1.39%; inhibition at 500 µM [3]: 81.44 ± 0.29%; inhibition at 1000 µM [3]: 98.51 ± 0.65%; IC50 [4]: 80 µM; Y-maze spontaneous alternation vs scopolamine group ([5]; 10 and 30 mg/kg plus scopolamine): significant increase; NORT long-term memory: % discrimination index [6, 7]: significantly higher; NORT short-term memory: exploration of novel vs familiar object in test phase [6, 8]: statistically not significant; NORT long-term memory: % discrimination index [6, 9]: significantly higher; NORT short-term memory: % discrimination index vs scopolamine alone [6, 9]: significantly greater; also recorded: significantly higher
O=C1c2ccccc2C(=O)N1c1ccc(Br)cc1 [compound 2, 2-(4-bromophenyl)isoindoline-1,3-dione]	15.21 ± 0.19	40.16 ± 0.14	47.85 ± 0.17	56.65 ± 0.30	69.87 ± 0.23	340	10.47 ± 0.25	22.12 ± 0.32	34.11 ± 1.21	41.72 ± 0.81	57.76 ± 0.75	62.57 ± 0.50	350	140	45.45 ± 0.22	51.34 ± 0.03	56.28 ± 0.03	64.36 ± 0.03	71.25 ± 0.12	78.2 ± 0.07	inhibition at 31.25 µM [3]: 38.36 ± 0.22%; inhibition at 62.5 µM [3]: 41.35 ± 0.13%; inhibition at 125 µM [3]: 47.14 ± 0.09%; inhibition at 250 µM [3]: 54.33 ± 0.22%; inhibition at 500 µM [3]: 61.1 ± 1.95%; inhibition at 1000 µM [3]: 66.7 ± 5.14%; IC50 [4]: 50 µM; NORT short-term memory: exploration of novel vs familiar object in test phase [6, 8]: did not exert a significant effect
Cc1ccc(N2C(=O)c3ccccc3C2=O)c(C)c1 [compound 3, 2-(2,4-dimethylphenyl)isoindoline-1,3-dione]	25.21 ± 0.15	40.16 ± 0.15	55.85 ± 0.18	77.65 ± 0.31	80.87 ± 0.25	150	18.47 ± 0.83	35.22 ± 0.50	46.11 ± 1.21	54.72 ± 0.80	68.76 ± 0.72	73.57 ± 0.41	220	18	59.49 ± 0.11	63.41 ± 0.14	69.37 ± 0.02	75.65 ± 0.03	82.4 ± 0.06	87.29 ± 0.03	% AChE inhibition mean ± SEM ([3]; 1000 μM, n = 3): 95.24 ± 0.12%; inhibition at 31.25 µM [3]: 65.2 ± 0.75%; inhibition at 62.5 µM [3]: 52.5 ± 0.92%; inhibition at 125 µM [3]: 77.32 ± 0.21%; inhibition at 250 µM [3]: 84.18 ± 0.1%; inhibition at 500 µM [3]: 91.47 ± 0.26%; inhibition at 1000 µM [3]: 95.7 ± 0.12%; IC50 [4]: 11 µM; NORT short-term memory: % discrimination index vs scopolamine alone [6, 7]: significantly higher; NORT long-term memory: % discrimination index [6, 9]: significantly higher
COc1cc2c(cc1OC)C(=O)C(CC1CCN(Cc3ccccc3)CC1)C2 (stereo not shown) [donepezil, reference compound]	–	–	–	–	–	–	–	–	–	–	–	–	–	–	69.31 ± 0.06	74.42 ± 0.06	78.39 ± 0.06	82.49 ± 0.08	86.42 ± 0.11	91.29 ± 0.06	Y-maze spontaneous alteration (% alteration) ([5]; donepezil 2 mg/kg plus scopolamine, n = 8): 83.83 ± 2.64; NORT short-term memory: exploration of novel vs familiar object in test phase ([6]; donepezil 2 mg/kg plus scopolamine 1 mg/kg): statistically not significant

Reference: publication PMC9979339 (ACS Omega, 2023)
